Several values for one entry are separate records, joined by “and”; a condition that tells them apart may be missing. Equal entries are not always repeated. Each block holds one compound with its values, some of them ahead of it.
Assays:
HeLa S-3 cells = assay: Inhibition of cell growth (SRB), HeLa cells; format: cell-based, human; details: 2 days of treatment, sulforhodamine B, replicate experiments listed singly
Method: D. Measuring the Inhibition of Cell Growth
Growth inhibition (GI50) values were measured with HeLa S-3 cells selected for growth on plastic. […] One day later, a control plate was fixed by addition of TCA to 5%. After five rinses with tap water the plate was air dried and stored at 4° C. Test compounds were added to the remaining plates at 10-fold dilutions between 0.01 and 100 μM. Two days later all plates were fixed as described above. Cells were then stained by the addition of 100 μl per well of 0.4% sulforhodamine B (SRB) in 1% acetic acid for 30 min at 4° C. Wells were then quickly rinsed 5× with acetic acid (1%) and allowed to air dry. The SRB was then solubilized by the addition of 100 μl per well of unbuffered 10 mM Tris base. Dye was quantified by measuring absorbance at 490 nm on a Molecular Devices kinetic microplate reader. Growth at each inhibitor concentration relative to the untreated control was calculated according to the following equation: percent growth=100×(T−To)/(C−To), where T was the average optical density (OD) of the test wells after 2 days of treatment, To was the average OD of the wells in the control plate on day 0 and C was the average OD of untreated wells. Plots of percent growth versus inhibitor concentration were used to determine the GI50.

implanted tumors = assay: Efficacy study, implanted tumors; format: in vivo, athymic mice; details: IP
Method: The efficacy study consists of three compound-treated groups (six mice/group), a positive control-treated group (six mice), and a vehicle-treated control group of 12 mice. Test compounds were administered IP under the treatment schedules listed above (qd×14 or q4d×3), whereas the positive control agent (Taxol) was administered intravenously (IV) at a dosage level of 15 mg/kg/dose for five consecutive days (qd×5). All agents were administered on the basis of individual animal body weight. Treatment began when the implanted tumors were approximately 100 mg in size (range of 65 to 200 mg). The mice were observed daily for survival. Each tumor was measured by caliper in two dimensions and converted to tumor mass using the formula for a prolate ellipsoid (a×b^2/2) and assuming unit density. Tumor measurements and animal body weights were recorded twice weekly. Antitumor activity was assessed by the delay in tumor growth of the treated groups in comparison to the vehicle-treated control group, partial and complete regressions, and tumor-free survivors.

[1] = system: Tumor Cells in Hollow Fibers; assay: NCI Hollow Fiber Assay; format: in vivo

GI50 (HeLa S-3 cells): 30 nM and 10 nM
Structure (SMILES): CC(=O)N[C@H]1CC[C@H](Nc2nc(NCc3ccc(-c4cccc(Cl)c4)cc3)c3ncn(C(C)C)c3n2)CC1 [Compound 110]

GI50 (HeLa S-3 cells): 40 nM and 10 nM
Structure (SMILES): CC(=O)N[C@H]1CC[C@H](Nc2nc(NCc3ccc(-c4cccc(F)c4)cc3)c3ncn(C(C)C)c3n2)CC1 [Compound 96]

GI50 (HeLa S-3 cells): 300 nM
Structure (SMILES): CCCN[C@H]1CC[C@H](Nc2nc(NCc3ccc(-c4cc(C)cs4)cc3)c3ncn(C(C)C)c3n2)CC1 [Compound 162]

melting point: 222 to 223 °C
GI50 (HeLa S-3 cells): 400 nM
Structure (SMILES): CC(=O)N[C@H]1CC[C@H](Nc2nc(NCc3ccc(-c4cc(C)cs4)cc3)c3ncn(C(C)C)c3n2)CC1 [Compound 161]

GI50 (HeLa S-3 cells): > 10000 nM
Structure (SMILES): CC[C@H](CO)Nc1nc(NCc2ccc(-c3cccc(NC(C)=O)c3)cc2)c2ncn(C(C)C)c2n1 [Compound 5]

GI50 (HeLa S-3 cells): 100 nM
Structure (SMILES): CC(C)n1cnc2c(NCc3ccc(-c4ccoc4)cc3)nc(N[C@H]3CC[C@H](N)CC3)nc21 [Compound 164]

GI50 (HeLa S-3 cells): 200 nM
Structure (SMILES): CC(=O)N[C@H]1CC[C@H](Nc2nc(NCc3ccc(-c4cc(C)cc(C)c4)cc3)c3ncn(C(C)C)c3n2)CC1 [Compound 150]

GI50 (HeLa S-3 cells): 400 nM
Structure (SMILES): CC(C)n1cnc2c(NCc3ccc(-c4ccc(F)c(Cl)c4)cc3)nc(N[C@H]3CC[C@H](N)CC3)nc21 [Compound 14]

melting point: 109 to 110 °C
Structure (SMILES): CC(C)n1cnc2c(NCc3ccc(-c4cccs4)cc3)nc(N[C@H]3CC[C@H](N)CC3)nc21 [Compound 111]

GI50 (HeLa S-3 cells): 40 nM and 100 nM
Structure (SMILES): CC(=O)N[C@H]1CC[C@H](Nc2nc(NCc3ccc(-c4cccc(CN)c4)cc3)c3ncn(C(C)C)c3n2)CC1 [Compound 223]

GI50 (HeLa S-3 cells): 300 nM
Structure (SMILES): Cc1csc(-c2ccc(CNc3nc(N[C@H]4CC[C@H](N)CC4)nc4c3ncn4C(C)C)cc2)c1 [Compound 160]

melting point: 241 to 243 °C
Structure (SMILES): CC(=O)N[C@H]1CC[C@H](Nc2nc(NCc3ccc(-c4ccoc4)cc3)c3ncn(C(C)C)c3n2)CC1 [Compound 165]

melting point: 225 to 230 °C
GI50 (HeLa S-3 cells): 400 nM
Structure (SMILES): CC(=O)N[C@H]1CC[C@H](Nc2nc(NCc3ccc(-c4ccc(C)s4)cc3)c3ncn(C(C)C)c3n2)CC1 [Compound 158]

GI50 (HeLa S-3 cells): 6000 nM
Structure (SMILES): CC(=O)N[C@H]1CCCC[C@@H]1Nc1nc(NCc2ccc(-c3ccccc3)cc2)c2ncn(C(C)C)c2n1 [Compound 60]

Continued, compound first:

Structure (SMILES): CC(C)n1cnc2c(NCc3ccc(-c4ccsc4)cc3)nc(N[C@H]3CC[C@H](N)CC3)nc21 [Compound 12]
T-C (implanted tumors; 0.27 mg/kg, q4d × 3): 1.2 days
T-C (implanted tumors; 0.4 mg/kg, q4d × 3): 0.2 days
T-C (implanted tumors; 0.6 mg/kg, q4d × 3): 0.3 days

Structure (SMILES): CC(=O)N[C@H]1CC[C@H](Nc2nc(NCc3ccc(-c4ccccn4)nc3)c3ncn(C(C)C)c3n2)CC1 [Compound 94]
GI50 (HeLa S-3 cells): 70 nM
Cell Types Killed [1]: COLO205, OVCAR-3, H522

Structure (SMILES): C=Cc1ccc(-c2ccc(CNc3nc(N[C@H](CC)CO)nc4c3ncn4C(C)C)cc2)cc1 [Compound 33]
GI50 (HeLa S-3 cells): 1000 nM and 2000 nM and 900 nM

Structure (SMILES): Cn1cnc2c(NCc3ccc(-c4ccccc4)cc3)nc(N[C@H]3CC[C@H](N)CC3)nc21 [Compound 139]
melting point: 182 to 184 °C

Structure (SMILES): CC[C@H](CO)Nc1nc(NCc2ccc(-c3ccccn3)cc2)c2ncn(C(C)C)c2n1 [Compound 17]
GI50 (HeLa S-3 cells): 600 nM and 300 nM

Structure (SMILES): CC(C)n1cnc2c(NCc3ccc(-c4ccccn4)cc3)nc(N[C@H]3CC[C@H](N)CC3)nc21 [Compound 78]
T-C (implanted tumors; 0.33 mg/kg, qd × 14): 1.8 days
Tumor free/total (implanted tumors; 0.33 mg/kg, qd × 14): 0/6
T-C (implanted tumors; 0.5 mg/kg, qd × 14): 0.8 days
Tumor free/total (implanted tumors; 0.5 mg/kg, qd × 14): 0/6
T-C (implanted tumors; 1.0 mg/kg, q4d × 3): 1.1 days
Tumor free/total (implanted tumors; 1.0 mg/kg, q4d × 3): 0/6

Structure (SMILES): CC(C)n1cnc2c(NCc3cccnc3)nc(N[C@@H]3CCCC[C@@H]3N)nc21 [Compound 126, reference compound]
GI50 (HeLa S-3 cells): 2000 nM and 4000 nM and 6000 nM

Structure (SMILES): CC[C@H](CO)Nc1nc(NCc2ccc(-c3cccnc3)cc2)c2ncn(C(C)C)c2n1 [Compound 25]
GI50 (HeLa S-3 cells): 2000 nM and 400 nM and > 1000 nM

Structure (SMILES): CCCN(CCC)CCNc1nc(NCc2ccc(-c3ccccc3)cc2)c2ncn(C(C)C)c2n1 [Compound 210]
GI50 (HeLa S-3 cells): 4000 nM

Structure (SMILES): CC[C@H](CO)Nc1nc(NCc2ccc(-c3ccc(C(O)CO)cc3)cc2)c2ncn(C(C)C)c2n1 (some centres unmarked) [Compound 34]
GI50 (HeLa S-3 cells): 6000 nM

Structure (SMILES): CC(=O)N[C@@H](C)CNc1nc(NCc2ccc(-c3ccccc3)cc2)c2ncn(C(C)C)c2n1 [Compound 108]
GI50 (HeLa S-3 cells): 5000 nM

Structure (SMILES): CC[C@H](CO)Nc1nc(NCc2ccc(-c3ccc(OC)cc3)cc2)c2ncn(C(C)C)c2n1 [Compound 43]
GI50 (HeLa S-3 cells): 8000 nM

Structure (SMILES): CC(C)n1cnc2c(NCc3ccc(-c4ccccc4)cc3)nc(N[C@H]3CCCC[C@H]3NC(=O)Nc3ccccc3)nc21 [Compound 80]
GI50 (HeLa S-3 cells): > 100000 nM

Structure (SMILES): CC(C)n1cnc2c(NCc3ccc(-c4ccccn4)nc3)nc(N[C@H]3CC[C@H](N)CC3)nc21 [Compound 93]
GI50 (HeLa S-3 cells): 80 nM

Structure (SMILES): CC(C)n1cnc2c(NCc3ccc(-c4ccccc4)nc3)nc(N[C@H]3CC[C@H](N)CC3)nc21 [Compound 86]
GI50 (HeLa S-3 cells): 30 nM

Structure (SMILES): CC(C)n1cnc2c(NCc3ccc(-c4cccnc4)cc3)nc(N[C@H]3CC[C@H](N)CC3)nc21 [Compound 103]
GI50 (HeLa S-3 cells): 30 nM and 8 nM and 20 nM and 10 nM
Cell Types Killed [1]: OVCAR 3, OVCAR 5,

Structure (SMILES): CC(=O)N[C@H]1CC[C@H](Nc2nc(NCc3ccc(-c4ccccc4)nc3)c3ncn(C(C)C)c3n2)CC1 [Compound 87]
T-C (implanted tumors; 10 mg/kg, q4d × 3): 2.9 days
Tumor free/total (implanted tumors; 10 mg/kg, q4d × 3): 0/6
T-C (implanted tumors; 15 mg/kg, q4d × 3): 2.5 days
Tumor free/total (implanted tumors; 15 mg/kg, q4d × 3): 0/6

Structure (SMILES): CCCNCCCCNc1nc(NCc2ccc(-c3ccccc3)cc2)c2ncn(C(C)C)c2n1 [Compound 215]
GI50 (HeLa S-3 cells): 3000 nM

Structure (SMILES): CC(=O)NCCCNc1nc(NCc2ccc(-c3ccccc3)cc2)c2ncn(C(C)C)c2n1 [Compound 212]
GI50 (HeLa S-3 cells): 3000 nM
